In US4220755A, “Fortimicin B derivatives and process for production thereof” (Abbott Laboratories, priority 1976, dated 1980):
Values after ≈ are worked out from the molar mass of the structure shown.

What was measured:
[1] = Stability in alkaline aqueous conditions; format: physicochemical; details: for Stability in aqueous solution: pH 10, room temperature, within one hour
Procedure: The stability of 4-N-acylfortimicin B derivatives in aqueous alkaline conditions is poor. […] Therefore, purification of these compounds under basic conditions (for example, column chromatography with Amberlite CG-50, eluting with aqueous ammonia) is not practical.
In contrast with the instability of 4-N-acylfortimicin B derivatives, 4-N-alkylfortimicin B derivatives are so stable that no decomposition occurs even in aqueous barium hydroxide solution at reflux temperature for 18 hours. Therefore, in the case of 4-N-alkylfortimicin B, any substituents can be introduced at 4-N-position of fortimicin B, even though such substituents can not be introduced as the acyl type to such position due to the aforementioned instability.

[2] = system: Bacillus subtilis KY4273; test: MIC, agar dilution method, pH 8.0; format: cell-based; details: pH 8.0; Bacillus subtilis KY4273; read-out: Minimum inhibition concentration (MIC), BS
Procedure: (§1) Measurement was carried out according to the agar dilution method, using a medium of pH 8.0, or the Japanese Antibiotic Medicament Standard, using a medium of pH 7.2 Units are in mcg/ml.
B.S.: Bacillus subtilis KY4273

[3] = system: Salmonella typhosa KY4278 ATCC9992; test: MIC, agar dilution method, pH 8.0; format: cell-based; details: Salmonella enterica, pH 8, read-out: Minimum inhibition concentration (MIC), ST
Procedure: as §1
S.T.: Salmonella typhosa KY4278 ATCC9992

[4] = system: Proteus vulgaris KY4277 ATCC6897; test: MIC, agar dilution method, pH 8.0; format: cell-based; details: ATCC6897; pH 8.0; Proteus vulgaris KY4277; read-out: Minimum inhibition concentration (MIC), PV
Procedure: as §1

[5] = system: Shigella sonnei KY4281 ATCC9290; test: MIC, agar dilution method, pH 8.0; format: cell-based; details: ATCC9290; pH 8.0; Shigella sonnei KY4281; read-out: Minimum inhibition concentration (MIC), SS
Procedure: as §1

[6] = system: Staphylococcus aureus KY4279 ATCC6538P; test: MIC, agar dilution method, pH 8.0; format: cell-based; details: pH 8.0, Staphylococcus aureus KY4279, read-out: Minimum inhibition concentration (MIC), SA
Procedure: as §1
S.A.: Staphylococcus aureus KY4279 ATCC6538P

[7] = system: Eschericia coli KY4271 ATCC26; test: MIC, agar dilution method, pH 8.0; format: cell-based; details: Escherichia coli, ATCC26; pH 8.0; E. coli KY4271; read-out: Minimum inhibition concentration (MIC), EC
Procedure: as §1
E.C.: Eschericia coli KY4271 ATCC26

[8] = system: Klebsiella pneumoniae KY4275 ATCC10031; test: MIC, agar dilution method, pH 8.0; format: cell-based; details: ATCC10031; pH 8.0; Klebsiella pneumoniae KY4275; read-out: Minimum inhibition concentration (MIC), KP
Procedure: as §1
K.P.: Klebsiella pneumoniae KY4275 ATCC10031.

Stability in alkali condition (MIC medium) ([1]; pH 8.0)	SMILES	Stability in aqueous solution [1]	MIC [2]	MIC [3]	MIC [4]	MIC [5]	MIC [6]	MIC [7]	MIC [8]
unstable	CO[C@H]1[C@@H](O)[C@H](N)[C@@H](O[C@H]2O[C@H]([C@H](C)N)CC[C@H]2N)[C@H](O)[C@@H]1N(C)C(=O)CCCCN [Compound 11, 4-N-(δ-amino-n-valeryl)fortimicin B]	almost completely decomposed							
	CO[C@H]1[C@@H](O)[C@H](N)[C@@H](O[C@H]2O[C@H]([C@H](C)N)CC[C@H]2N)[C@H](O)[C@@H]1N(C)C(=O)[C@@H](O)CCN [Compound 14, 4-N-[L-(-)-γ-amino-α-hydroxybutyryl]fortimicin B]	almost completely decomposed	5 µg/mL (≈ 11.1 µM)	2.5 µg/mL (≈ 5.56 µM)	10 µg/mL (≈ 22.2 µM)	20 µg/mL (≈ 44.5 µM)	0.63 µg/mL (≈ 1.4 µM)	0.63 µg/mL (≈ 1.4 µM)	5 µg/mL (≈ 11.1 µM)
